A short description of series [1]: Methylphenidate antagonism (mice biting corrugated paper). Type of series: in vivo. The settings on record: Mus musculus, ip. The procedure: Methylphenidate antagonism (ED50 mg/kg i.p.)
Perspex observation cages without bottom and lid, consisting of 5 sections each measuring 12×25×30 cm. White corrugated paper. Mice, male, 18-25 g.
The test substance is given i.p. in the doses 0, 1/8, 1/32 and 1/128 of the determined "i.p. LD50". 3×2 mice are used for each dose level. Two or 24 hours after injection of test substance, methylphenidate, 60 mg/kg, is injected s.c. After administration of methylphenidate the mice are placed in the observation cages, 2 in each cage, where they remain for exactly 1 hour. The cages are placed on corrugated paper, the corrugations facing upwards. It is examined whether the mice have been biting the corrugated paper or not. […] If one or more of the control pairs have not been biting, the test has to be repeated on a new set of mice.
The result is stated in fractions: 0/3, 1/3, 2/3 and 3/3 where 0, 1, 2 and 3 are the number of pairs which have not been biting on receipt of the dose in question.
The results are calculated as the dose (ED50), which causes antagonism in 50% of the test animals.

The nature of series [2]: Amphetamine antagonism (stereotypy in rats). Type of series: in vivo. The note with it: Rattus norvegicus.
Series [3] is described as follows: Catalepsy wire mesh, rat, max. Type of series: in vivo, rats. The note with it: for ED50: Rattus norvegicus, sc, read-out: Catalepsy wire mesh, rat, max. ED50; for Cataleptic activity: in words. The procedure:
Catalepsy wire mesh, rat, max. (ED50 mg/kg s.c.)
A vertical wire netting (50 cm×49 cm). The meshes (openings) of the netting are square (1 cm×1 cm). The wire diameter is 2 mm. Stop watch. Rats, male, 180-200 g.
The animals are labeled and used in groups of five. The test substance is injected subcutaneously (s.c.) (5 ml/kg) at 4 dose levels selected from the fixed dose scale.
The animals are placed in the middle of the vertical wire netting 60, 120, 180, 240, 300 and 360 minutes after injection of the test compound. The animals are considered cataleptic when they remain immobile during a period of 15 seconds. This cataleptic reaction is designated +. If the rats are "atonic" and passively slide down the wire mesh they are considered not cataleptic. If the animals climb up and down the wire mesh they are nor cataleptic. In both situations the designation - is used.

The nature of series [4]: Neuroleptic effect: duration and strength (remarks of Table 2). Type of series: in vivo. The settings on record: for Duration (remarks, words): duration of neuroleptic effect; for Duration (remarks, words) / Strength of effect (remarks, words): in words; for Strength of effect (remarks, words): strength of neuroleptic effect. The text has this: The pharmacological testing of the novel xanthones and thioxanthenes of Formula I consisted of standard and reliable tests. […]

The nature of series [5]: Acute toxicity, LD50 in male rats following peroral administration. The note with it: for LD50 at 168 h: rat, in vivo, po, male rats, p.o., one week after administration, read-out: LD50 p.o. in male rats after 1 week. Type of series: in vivo. The procedure:
The acute toxicity, as measured by LD50 in male rats following peroral administration, is much lower for Lu 13-135 when compared with piflutixol one week after administration. The figure for Lu 13-135 is >60 mg/kg against 1.5 mg/kg for piflutixol.

Series [6] can be described thus: Catalepsy wire mesh, rat, max. The note with it: po, rats. Type of series: in vivo.
Another series is described as follows: Sedation. The settings on record: in words; for b551 compared with piflutixol.
[7] abbreviates: mice, i.p., methylphenidate 60 mg/kg s.c. 2 h after test substance, read-out: Methylphenidate antagonism ED50, 2 h.
The mark [8] stands for this setting: mice, i.p., methylphenidate 60 mg/kg s.c. 24 h after test substance, read-out: Methylphenidate antagonism ED50, 24 h.
[9] abbreviates: ip, 24 h, read-out: Amphetamine antagonism ED50.
Where [10] appears, read: rats, s.c., strongest effect within first 6 hours.
Where [11] appears, read: po, read-out: Amphetamine antagonism ED50, p.o.
[12] abbreviates: 2 h, read-out: Methylphenidate antagonism ED50, 2 h.

Usually ED50 stands for the dose at which the effect has come halfway, by size or by number of responders. By LD50 is commonly meant the dose at which mortality reaches 50%.

“Also recorded” adds a separate entry of the source.

Regarding `O[C@H]1CC[C@H](CN2CCC(=C3c4ccc(F)cc4Sc4ccc(C(F)(F)F)cc43)CC2)CC1` [Lu 13-135, 1-(trans-4-hydroxycyclohexylmethyl)-4-(2-trifluoromethyl-6-fluoro-9-thioxanthenyliden)-piperidine], the ED50 in series [1] (setting [7]) came out at 0.32 mg/kg; in series [1] (setting [8]), 0.19 mg/kg; in series [2] (setting [9]), 0.32 mg/kg; in series [3] (setting [10]), 0.4 mg/kg. In series [3], the “Cataleptic activity” value is recorded as “have a cataleptic activity”. For the same molecule, in series [4], the “Duration (remarks, words)” value was “very long acting; also recorded: long acting”. The “Strength of effect (remarks, words)” value in series [4] is reported as “strong; also recorded: very strong”. For the same molecule, the “Acute toxicity” value in series [5] (in words, compared with related thioxanthenes (b9) or piflutixol) is given as “much lower”. Also, in series [5], the LD50 at 168 h is above 60 mg/kg.
In the case of `CS(=O)(=O)N[C@H]1CC[C@H](CN2CCC(=C3c4ccc(F)cc4Sc4ccc(C(F)(F)F)cc43)CC2)CC1` [Lu 16-049], the ED50 in series [1] (setting [7]) came out at 1 mg/kg; in series [1] (setting [8]) it was 0.49 mg/kg; in series [2] (setting [11]) it was 2.5 mg/kg; in series [6], 1.7 mg/kg. In series [4], the “Duration (remarks, words)” value is given as “long acting”. Further, the “Strength of effect (remarks, words)” value in series [4] is given as “moderately strong”.
Regarding `OCCC1CCN(CC/C=C2/c3ccc(F)cc3Sc3ccc(C(F)(F)F)cc32)CC1` [piflutixol, 2-trifluoromethyl-6-fluoro-9-(3-(4-(2-hydroxyethyl)-1-piperidyl)propylidene)-thioxanthene, reference compound], the ED50 is 0.03 mg/kg in series [1] (setting [12]); 0.03 mg/kg in series [1] (24 h, read-out: Methylphenidate antagonism ED50, 24 h); 0.05 mg/kg in series [3] (6 h). Further, the “Duration (remarks, words)” value in series [4] is “most long acting”. Also, the Duration in series [4] (remarks column, hours) lay within 48 to 72 h. Also, in series [4], the “Strength of effect (remarks, words)” value is on record as “most patent”. Further, the LD50 at 168 h in series [5] turned out to be 1.5 mg/kg. Also, the “Sedation / sedative effect” value in “Sedation” is “very strong sedative effects”.
With `O=C1OCCN1CCN1CCC(=C2c3ccccc3Sc3ccc(Cl)cc32)CC1` [Lu 14-106, 1-(2-(2-Oxazolidinone-3-yl)ethyl)-4-(2-chloro-9-thioxanthenylidene)piperidine], the 50% effective dose (ED50) in series [1] (setting [7]) is 0.51 mg/kg; in series [1] (setting [8]), above 40 mg/kg; in series [2] (setting [9]), 1 mg/kg; in series [3] (setting [10]), 6.6 mg/kg. The “Duration (remarks, words)” value in series [4] was “short acting”. Besides, the “Strength of effect (remarks, words)” value in series [4] is listed as “strong”.
As for `O[C@@H]1CC[C@H](CN2CCC(=C3c4ccc(F)cc4Sc4ccc(C(F)(F)F)cc43)CC2)C[C@H]1O` (relative stereo) [Lu 15-052, 1-(3-trans-4-cis-dihydroxycyclohexylmethyl)-4-(2-trifluoromethyl-6-fluoro-9-thioxanthenylidene)-piperidine], the 50% effective dose (ED50) in series [1] (setting [7]) worked out at 0.32 mg/kg; in series [1] (setting [8]), 0.06 mg/kg; in series [2] (setting [9]) it was 0.9 mg/kg; in series [3] (setting [10]) it was 0.026 mg/kg. Besides, the “Cataleptic activity” value in series [3] is “have a cataleptic activity”. The “Duration (remarks, words)” value in series [4] was “long acting”. The “Strength of effect (remarks, words)” value in series [4] is listed as “strong; also recorded: very strong”.
`CN1CCN(C2=Nc3cc(Cl)ccc3Nc3ccccc32)CC1` [clozapine, reference compound]: the values for the ED50 in series [1] (setting [12]), in series [2] (setting [9]) and in series [3] (setting [10]) were above 160 mg/kg, above 40 mg/kg and 85 mg/kg, respectively. For the same molecule, the “Duration (remarks, words)” value in series [4] is “short acting”. Moreover, the “Strength of effect (remarks, words)” value in series [4] was “weak”.
Turning to `O[C@H]1CCC[C@H](CN2CCC(=C3c4ccc(F)cc4Sc4ccc(C(F)(F)F)cc43)CC2)C1` (relative stereo) [Lu 15-030, 1-(trans-3-hydroxycyclohexylmethyl)-4-(2-trifluoromethyl-6-fluoro-9-thioxanthenylidene)-piperidine], the 50% effective dose (ED50) came out at 0.28 mg/kg in series [1] (setting [7]), 0.05 mg/kg in series [1] (setting [8]), 0.88 mg/kg in series [2] (setting [9]) and 0.39 mg/kg in series [3] (setting [10]). For the same molecule, the “Cataleptic activity” value in series [3] was “have a cataleptic activity”. Besides, in series [4], the “Duration (remarks, words)” value is “long acting”. For the same molecule, the “Strength of effect (remarks, words)” value in series [4] was “very strong”.
As for `N[C@H]1CC[C@H](CN2CCC(=C3c4ccc(F)cc4Sc4ccc(C(F)(F)F)cc43)CC2)CC1` [Lu 16-042], the median effective dose (ED50) in series [1] (setting [7]) came to 1.2 mg/kg; in series [1] (setting [8]), 0.17 mg/kg; in series [2] (setting [11]), 2.5 mg/kg; in series [3] (setting [10]), 3.3 mg/kg. In addition, the “Duration (remarks, words)” value in series [4] is recorded as “long acting”. Further, the “Strength of effect (remarks, words)” value in series [4] was “strong”.

For the origin of these results see patent publication US4285956A, “Xanthene and thioxanthene derivatives, compositions thereof and treatment therewith” (priority 1978, dated 1981).
